Patent US20080269223A1, “Mouth Dissolvable and Meltable, and Water Dispersable Delivery Formulation” (priority 2004, published 2008)
Where two headings read alike, the source gives them in different places. Each block holds one compound with its values, some of them ahead of it.

Legend:
[1] = tested on: human plasma protein; conditions: cited from earlier work
[2] = cited from earlier work
[3] = Dissolution time of mannitol forms in water; assay type: physicochemical; conditions: ratio 1:30 w/w with respect to water, 20° C.
Protocol: The filler is mannitol, preferably a form of spray dried mannitol. […] Accordingly, α form of spray dried mannitol is most preferred in accordance to the present invention. The α-form of mannitol has mean particle size diameter of about 150 micron and Haussner number of about 1.16, having dissolution time in water with a ratio of 1:30 with respect to water in w/w, not more than 5 seconds at 20° C. […] When the dissolution time of the α-form of spray dried mannitol is compared with the standard and granulated mannitol, it gave following gradation:—

Compound: Nc1nnc(-c2cccc(Cl)c2Cl)c(N)n1 [Lamotrigine, 3,5-diamino-b-[2,3-dichlorophenyl]-1,2,4-triazine]
displacement of other anti-epileptic drugs from protein binding sites ([1]; carbamazepine, phenytoin, phenobarbitol): does not displace
bound to human plasma protein [1]: approximately 55%
average half life ([2]; Lamotrigine alone): approximately 24 hours
effect of food on bioavailability ([2]; in vivo): not affected by food
half life ([2]; used concurrently with phenytoin): approximately 7.2 hours
half life ([2]; with Valproic Acid): approximately 59 hours

dissolution time in water [3]: 5 s
dissolution time in water ([3]; listed as α-form of mannitol): not more than 5 seconds
Compound: OCC(O)C(O)C(O)C(O)CO (stereo not drawn) [Spray dried α-mannitol, 1,2,3,4,5,6-hexanehexol]

dissolution time in water [3]: 100 s
Compound: OC[C@@H](O)[C@@H](O)[C@H](O)[C@H](O)CO [granulated mannitol]

dissolution time in water [3]: 35 s
Compound: OC[C@@H](O)[C@@H](O)[C@H](O)[C@H](O)CO [standard mannitol]
